{"source": "patent US11725015B2", "about": "“Macrocyclic compound and uses thereof” (President and Fellows of Harvard College, priority 2017, dated 2023)", "key": {"[1]": {"tested_on": "HSC-2-Luc orthotopic transplantation (tongue)", "assay": "HSC-2 orthotopic transplantation mouse model", "type": "in vivo, mice", "conditions": "Q7D×3"}, "[2]": {"conditions": "various in vivo models; cited from earlier work"}, "[3]": {"conditions": "in comparison with Halichondrin B; cited from earlier work"}, "[4]": {"conditions": "not only in vitro but also in vivo; cited from earlier work"}}}
{"compound": "N.N.[Cl][Pt][Cl]", "note": "[Cisplatin, cisplatin, reference compound]", "values": [{"measurement": "ILS (%)", "setting": "[1]; 5 mg/kg intravenously + cetuximab 5 mg/kg", "result": 150, "unit": "%"}, {"measurement": "ILS (%)", "setting": "[1]; 5 mg/kg intravenously, without cetuximab", "result": 0, "unit": "%"}]}
{"compound": "C=C1C[C@@H]2CC[C@@]34C[C@@]5(O)O[C@H]6[C@@H](O3)[C@H]3O[C@H](CC[C@@H]3O[C@H]6[C@H]5O4)CC(=O)O[C@@H]3[C@@H](C)[C@@H]4O[C@@H]5C[C@]6(C[C@@H]7O[C@]8(C[C@H](C)[C@@H]9O[C@H]([C@@H](O)C[C@@H](O)CO)C[C@@H]9O8)C[C@H](C)[C@@H]7O6)O[C@@H]5C[C@@H]4O[C@H]3C[C@H]3O[C@@H](CC[C@@H]1O2)C[C@@H](C)C3=C", "note": "[Halichondrin C]", "values": [{"measurement": "activity in vivo", "setting": "[2]", "result": "active in various in vivo models"}, {"measurement": "stability in aqueous solution", "setting": "[3]", "result": "unstable in aqueous solution"}]}
{"compound": "C=C1C[C@@H]2CC[C@@]34C[C@H]5O[C@H]6[C@@H](O3)[C@H]3O[C@H](CC[C@@H]3O[C@H]6[C@H]5O4)CC(=O)O[C@@H]3[C@@H](C)[C@@H]4O[C@@H]5C[C@]6(CC7O[C@@]8(C[C@H](C)C7O6)C[C@H](C)[C@@H]6O[C@H](CC(=O)O)[C@H](O)C[C@@H]6O8)O[C@@H]5CC4O[C@H]3C[C@H]3O[C@@H](CC[C@@H]1O2)C[C@@H](C)C3=C", "note": "(some centres unmarked) [Norhalichondrin B]", "values": [{"measurement": "anti-tumor activity compared with Halichondrin B", "setting": "[4]", "result": "much weaker than Halichondrin B"}]}
